Test results from US4497826A, “Antiparkinsonian agent” (priority 1981, dated 1985).
Read-outs that look alike come from different tables or passages of the source.

Legend:
[1] = test system: L-aromatic amino acid decarboxylase; details: cited from earlier work; for enzymatic decarboxylation of the stereoisomers: L- and D-, threo- and erythro-isomers; for nature of the norepinephrine formed: product of decarboxylation
[2] = test system: parkinson's disease, freezing phenomenon; assay: Clinical tests 1 to 7: treatment of parkinsonian patients with DL-threo-DOPS and a decarboxylase inhibitor; format: in vivo, human
Procedure: The patient was a person suffering from parkinson's disease, having a disease history of 12 years after being affected by the disease. The primary clinical features were moderate rigidity of the four limbs and trunk were slight tremor. At about 6 years after the start of the disease, L-DOPA therapy was started.
[…] The patient also had difficulty in writing.
This patient was then treated with DL-threo-DOPS in the following dosage, while keeping the administration of L-DOPA, the decarboxylase inhibitor (benserazide hydrochloride) and trihexyphenidyl hydrochloride at strictly the same dosage throughout the period of trial.
DL-threo-DOPS was orally administered to the patient in the form of a capsule (DL-DOPS content: 200 mg) as follows:
First to 2nd day 6 capsules per day
3rd to 4th day 9 capsules per day
5th to 6th day 12 capsules per day
It is noted that the decarboxylase inhibitor was not newly administered, because it was already administered together with L-DOPA.
The patient was a person suffering from parkinson's disease, whose main syndrome was "pure akinesia" which was first described by one of the present inventors [Narabayashi et al, Advances in Parkinsonism (eds., W. Birkmayer and O. Hornykiewicz) Roche Basle, pages 335-342 (1976)].
But on the other hand, motion such as going up or down the stairs could be done rather normally. Accordingly, such a syndrome is also called paradoxical kinesia.
The patient was treated with DL-threo-DOPS and a decarboxylase inhibitor (carbidopa) in the same dosage as in the above Clinical Test 1.
In the same manner, other patients as shown in Table 1 were treated with threo-DOPS and a decarboxylase inhibitor. The results are shown in Table 1 together with the data in the above Clinical Tests 1 and 2.

[3] = Side effects in the clinical tests; format: in vivo, human
[4] = acute toxicity (LD50) in mice; details: mouse, in vivo
[5] = test system: brain norepinephrine; details: rats, cited from earlier work
[6] = test system: heart norepinephrine; details: rats, combination with decarboxylase inhibitor; cited from earlier work
[7] = test system: parkinson's disease; assay: Speed of response (transit time between two switches), patient of Clinical Test 6; format: in vivo, human; details: Clinical Test 6 patient
Procedure: The abscissa axis represents time (hour) after administration, and the ordinate axis means transit time (msec). The filled squares represent the transit time after DL-threo-DOPS intake and the open squares on the right side represent the transit time 2 hours after administation of L-DOPA, benserazid hydrochloride and trihexyphenidyl hydrochloride.
In order to quantitatively analyze the improvement of the syndromes in the above clinical tests, a speed of response was measured as to some patients in the tests.
Method for the measurement: The transit time was measured by using two switches (distance: 15 cm) in the same manner as described in Masao Kato and Kazuya Ando, "Parkinson's Disease, Physiopathology and Therapy", page 106, issued by Kanehara Shuppan on Mar. 31, 1978.
Results: The data of the patient in the above Clinical Test 6 are shown in the attached FIG. 1. As is shown in the figure, when it was measured before administration of DL-threo-DOPS (600 mg) and carbidopa (60 mg) and 1, 3, 4, 6 and 8 hours after the administration, the effect peaked at 4 hours after administration, and at the same time, the transit time was shortened about 170 msec as compared to that before administration of the drugs.

[8] = test system: parkinson's disease; assay: Surface electromyogram, patient of Clinical Test 6; format: in vivo, human; details: DL-threo-DOPS 600 mg and carbidopa 60 mg, vs before administration
Procedure: FIGS. 2, 3 and 4 each show surface electromyograms after DL-threo-DOPS and carbidopa were administered in comparison with the surface electromygrams before administration of the drugs. The data of FIG. 2 relate to a tremor of the right upper arm at static state. The data of FIG. 3 relate to tonic stretch reflexes of the extensor muscle of right forearm. The data of FIG. 4 indicate improvement of the skillfulness when flexion and extension movement at the right wrist joint was tried. […] E in FIG. 3 represents the period of passive stretching.
As to the patient in the above Clinical Test 6, the effect of administration of DL-threo-DOPS (600 mg) and carbidopa (60 mg) was measured by surface electromyogram, which was compared with that measured before the administration of drugs.

[9] = test system: decarboxylase; details: DL-threo-DOPS vs DL-erythro-DOPS; printed as "1/10 smaller"; cited from earlier work
[10] = test system: parkinson's disease; details: human, 300 mg intravenous; cited from earlier work
[11] = test system: narcolepsy; details: six patients, 200 mg intravenous; cited from earlier work
[12] = Clinical Test 1, 3rd day, with L-DOPA, benserazide, trihexyphenidyl
[13] = Clinical Test 1, 5th day, with L-DOPA, benserazide, trihexyphenidyl

N[C@H](C(=O)O)[C@@H](O)c1ccc(O)c(O)c1 [L-erythro-DOPS, reference compound]
enzymatic decarboxylation of the stereoisomers [1]: can be decarboxylated | nature of the norepinephrine formed [1]: not natural

N[C@@H](Cc1ccc(O)c(O)c1)C(=O)O [L-DOPA, L-3,4-dihydroxyphenylalanine, reference compound]
stiffness and tremor ([2]; Clinical Test 1 patient, earlier L-DOPA 400 mg, benserazide 100 mg, trihexyphenidyl 6 mg daily, oral): the stiffness and tremor were improved | stiffness and tremor ([2]; Clinical Test 1 patient, earlier L-DOPA therapy): improved the stiffness and tremor remarkably | freezing ([2]; Clinical Test 1 patient, increased amount of L-DOPA): it became worse

NC(C(=O)O)C(O)c1ccc(O)c(O)c1 (centres unmarked) [DOPS]
decarboxylation to norepinephrine ([1]; in vivo and in vitro): can be decarboxylated

N[C@H](C(=O)O)[C@H](O)c1ccc(O)c(O)c1 (relative stereo) [threo-DOPS, threo-3,4-dihydroxyphenylserine]
serious side effects [3]: serious side effects were not observed | LD50 ([4]; ip): ~10000 mg/kg | LD50 ([4]; po): > 10000 mg/kg

N[C@H](C(=O)O)[C@H](O)c1ccc(O)c(O)c1 [L-threo-DOPS]
enzymatic decarboxylation of the stereoisomers [1]: can be decarboxylated | nature of the norepinephrine formed [1]: confirmed as natural l-norepinephrine | DOPS-induced rise of norepinephrine in the brain ([5]; combination with decarboxylase inhibitor): did not enhance | accumulation of norepinephrine in the brain ([5]; injection into a cerebral ventricle): remarkable | accumulation of norepinephrine in the brain ([5]; intraperitoneal administration): negligible | penetration through B.B.B. [5]: poor penetration | DOPS-induced rise of norepinephrine in the heart [6]: abolished

N[C@H](C(=O)O)[C@H](O)c1ccc(O)c(O)c1 (relative stereo) [DL-threo-DOPS]
behavior and expression [2, 12]: more active behavior and expression | difficulty in writing [2, 12]: the difficulty in writing had disappeared | speaking [2, 12]: speaking more clearly than before | walking [2, 12]: much easier | falling down during walking [2, 13]: no falling down during walking within rooms and passageways | walking [2, 13]: could walk smoothly without any assistance and the steps of the walk became almost normal with wide steps | improvement of the syndrome on maintenance ([2]; Clinical Test 1, reduced dose of 9 capsules per day): the improvement of the syndrome is still continuing | walking and freezing in walking ([2]; Clinical Test 2, DL-threo-DOPS 1,800 mg and carbidopa 90 mg): the walking was improved and the freezing in walking disappeared | walking ([2]; Clinical Test 2, several days after reaching DL-threo-DOPS 1,800 mg and carbidopa 90 mg): the walking became almost normal | shortening of transit time compared to before administration ([7]; 4 hours after DL-threo-DOPS 600 mg and carbidopa 60 mg): about 170 msec | time of peak effect on transit time after administration ([7]; DL-threo-DOPS 600 mg and carbidopa 60 mg): 4 h | transit time compared with L-DOPA combination ([7]; vs 2 hours after L-DOPA 100 mg, benserazide 25 mg, trihexyphenidyl hydrochloride 2 mg): shorter than the transit time measured at 2 hours after administration of L-DOPA | tremor of the right upper arm at the static state ([8]; FIG. 2): remarkably decreased or improved | rigidity (stiffness) of the extensor muscle of the right forearm ([8]; FIG. 3): remarkably decreased and improved | tonic stretch reflex of the extensor muscle of the right forearm ([8]; FIG. 3): reduced | skillfulness, flexion and extension movement at the right wrist joint ([8]; FIG. 4): remarkably improved | rate of decarboxylation relative to DL-erythro-DOPS [9]: 1/10 | effect on parkinson's disease [10]: ineffective | effect on narcolepsy [11]: ineffective
